Laboratory results from BindingDB's records for doi:10.1039/d0md00137f (University of Regensburg, 2020).

Target: Muscarinic acetylcholine receptor M2 (Homo sapiens) (UniProt P08172)
Assay: Displacement of [3H]NMS from human recombinant muscarinic receptor M2 expressed in […] cell membranes measured after 3 hrs by radioligand competition binding assay

Ki | SMILES
3 nM | Cc1cc(/C=C/C=C/c2ccc(N(C)C)cc2)cc(C)[n+]1CCN1CCN(CCCCC2CCN(CC(=O)N3c4ccccc4NC(=O)c4ccccc43)CC2)CC1
0.589 nM | NCCNC(=O)CCc1cn(CCCCC2CCN(CC(=O)N3c4ccccc4NC(=O)c4ccccc43)CC2)cn1
